Measurements from paper PMC2993481, “Rat cytochromes P450 oxidize 3-aminobenzanthrone, a human metabolite of the carcinogenic environmental pollutant 3-nitrobenzanthrone” (Interdisciplinary Toxicology, 2010).

Columns and labels:
[1] = system: Hepatic microsomes from rats pretreated with Phenobarbital (CYP2B); assay: Inhibition of 3-ABA oxidation by CYPs in hepatic microsomes of phenobarbital-pretreated rats; format: biochemical, rat; settings: inhibitor 0.01–0.1 mM, 20 min, 37 °C
Experimental: (§1) The study was conducted in accordance with the Regulations for the Care and Use of Laboratory Animals (311/1997, Ministry of Agriculture, Czech Republic), which complies with Declaration of Helsinki. Microsomes from livers of ten male untreated Wistar rats and those of rats pretreated with β-NF (Sigma, UK) and PB were prepared by the procedure described previously (Stiborová et al., [2002]). Rat liver microsomes contained 0.6 nmol CYP/mg protein. Hepatic microsomes of rats treated with β-NF and PB contained 1.3 and 1.5 nmol CYP/mg proteins, respectively.
Incubation mixtures, in a final volume of 500 µl, consisted of 100 mM potassium phosphate buffer (pH 7.4), 10 mM NADPH, 0.5 mg of microsomal protein and 5–50 µM 3-ABA (dissolved in dimethyl sulfoxide, DMSO). The reaction was initiated by adding 3-ABA. Incubations with rat microsomes were carried out at 37 °C for 5–180 minutes. […]
The following chemicals were used to inhibit 3-ABA oxidation in the presence of rat hepatic microsomes: α-naphthoflavone (α-NF), which inhibits CYP1A1 and 1A2, furafylline, which inhibits CYP1A2, diamantane, an inhibitor of CYP2B, sulfophenazole, which inhibits CYP2C and diethyldithiocarbamate, which inhibits CYP2E1 (Rendic and DiCarlo, [1997]). […] After the incubation, 3-ABA and its metabolites were extracted and analyzed by HPLC as described above.

[2] = system: Salmonella; set-up: method as in Enya et al., [1997]; Seidel et al., [2002]; Arlt, [2005]; settings: ref Enya et al., [1997]; Seidel et al., [2002]; Arlt, [2005]; cited from earlier work
[3] = system: rats; set-up: method as in Seidel et al., [2002]; Arlt, [2005]; Nagy et al., [2005]; settings: intratracheal instillation, ref Seidel et al., [2002], Arlt, [2005], Nagy et al.; cited from earlier work
[4] = system: CYP1A1/2; assay: Inhibition of 3-ABA oxidation by CYPs in hepatic microsomes of β-naphthoflavone-pretreated rats; format: biochemical; settings: male, Wistar, rat, liver microsomes from β-naphthoflavone-pretreated rats, pH 7.4, probe 3-ABA (5-50 µM), hepatic microsomes from rats pretreated with β-naphtoflavone (CYP1A1/2), inhibitor 0.01–0.1 mM, 37 °C
Experimental: The HPLC was performed with a reversed phase column (Nucleosil 100-5 C18, Macherey-Nagel, Duren, Germany, 25 cm×4.6 mm, 5 µm) proceeded by a C-18 guard column, using isocratic elution conditions of 70% methanol in distilled water with a flow rate of 0.6 ml/min.
Inhibitors were dissolved in 7.5 µl of methanol or water (in the case of diethyldithiocarbamate), to yield final concentrations of 0.01–0.1 mM in the incubation mixtures. […] After the incubation, 3-ABA and its metabolites were extracted and analyzed by HPLC as described above.

[5] = set-up: method as in Seidel et al., [2002]; settings: smoking and nonsmoking salt mining workers exposed to diesel emissions; ref Seidel et al., [2002]; cited from earlier work
[6] = system: rat hepatic CYP enzymes in microsomes; assay: Oxidation of 3-ABA by rat hepatic microsomes, metabolites separated by HPLC; format: in vitro ADME; settings: NADPH, 37 °C
Experimental: as §1
Incubation mixtures, in a final volume of 500 µl, consisted of 100 mM potassium phosphate buffer (pH 7.4), 10 mM NADPH, 0.5 mg of microsomal protein and 5–50 µM 3-ABA (dissolved in dimethyl sulfoxide, DMSO). The reaction was initiated by adding 3-ABA. Incubations with rat microsomes were carried out at 37 °C for 5–180 minutes. Control incubations were carried out either (1) without the enzymatic system (microsomes) or (2) with microsomes and 3-ABA, but without NADPH. Then, 5 µl of 1 mM phenacetine in methanol was added as an internal standard and 3-ABA and its metabolites were extracted twice with ethyl acetate (2 × 1.5 ml). The extracts were evaporated to dryness; residues were dissolved in 30 µl of methanol and subjected to reverse-phase (RP)-HPLC to evaluate the amounts of residual 3-ABA and its metabolites. […]

[7] = system: Control rat hepatic microsomes (CYPs); assay: Inhibition of 3-ABA oxidation by CYPs in hepatic microsomes of untreated (control) rats; format: biochemical; settings: hepatic microsomes from control rats; inhibitor 0.01–0.1 mM, 20 min, 37 °C
Experimental: The study was conducted in accordance with the Regulations for the Care and Use of Laboratory Animals (311/1997, Ministry of Agriculture, Czech Republic), which complies with Declaration of Helsinki.

C1C2CC3C4CC5CC(C14)C(C2)C3C5 [Diamantane, diamantane]
IC50 [1]: 0.9 µM

O=C1c2ccccc2-c2ccc([N+](=O)[O-])c3cccc1c23 [3-NBA, 3-nitro-7H-benz[de]anthracen-7-one]
Mutagenic potency in the Ames Salmonella assay [2]: extremely high mutagenic potency | Carcinogenicity in rats [3]: carcinogenic in rats, causing lung tumours

Cc1nc2c([nH]1)c(=O)n(C)c(=O)n2Cc1ccco1 [Furafylline, furafylline]
IC50 at 20 min [4]: 16.6 µM

Nc1ccc2c3c(cccc13)C(=O)c1ccccc1-2 [3-ABA, 3-Aminobenzanthrone]
Concentration detected in urine [5]: 1–143 ng/24 h urine | Metabolites formed by oxidation in rat hepatic microsomes [6]: up to three metabolites

Nc1ccc2ccc3cccc4ccc1c2c34 [1-aminopyrene]
Concentration detected in urine [5]: 2–200 ng/24 h urine

CCN(CC)C(=S)S [DDTC, diethyldithiocarbamate]
IC50 [7]: 96.8 µM

O=c1cc(-c2ccccc2)oc2c1ccc1ccccc12 [α-naphtoflavone, α-naphthoflavone]
IC50 at 20 min [4]: 10.9 µM
